The values that follow come from US20190054051A1, “DOPA Formulations for Treatments of Parkinson's Disease” (The Board of Trustees of the Leland Stanford Junior …, priority 2017, published 2019).

What all share (type): in vivo, mice
One experiment deals with GRK3. The experiment can be described thus: Western blot of GRK3 in intact and lesioned striatum. The note with it: normalized to actin; formulation and ranitidine groups compared with the DOPA-treated group, Bonferroni post-hoc. As for the experimental part: (§1) After behavioral testing, mice again received their assigned injection and then, 45 minutes later, were decapitated under anesthesia. Tissue samples were processed as follows. Briefly, the brain was dissected, rapidly frozen on dry ice, and stored at −80° C. Striatal tissue was collected from 100 μm coronal slices cut at the level of striatum using a cryostat (Leica CM1950, Leica Biosystems Inc, Buffalo Groove, Ill.). Striatal samples from the intact and the lesioned hemisphere were separately collected in 150p1 of lysis solution (Totally RNA, Ambion, Austin, Tex.). Care was taken to make sure that the tissue samples were collected from similar regions in all the brain samples analyzed, since there are differences in the expression of GRKs from rostral to caudal CPu. […]
(§2) Western blots were quantified using band densitometry in Image J software (NIH version). […] Results are represented as group mean±SEM and analyzed using one-way or repeated-measures ANOVA (RM-ANOVA), with post hoc Bonferroni tests. The mouse cylinder test was analyzed with RM-ANOVA, with group (DOPA and DOPA-ranitidine formulations) as a between-group factor and saline vs. DOPA treatment as a within-group factor. AIMs scores were analyzed using the Kruskal Wallis test for pre-testing (DOPA injected animals) and the Mann-Whitney U test for the post-testing sessions (DOPA vs DOPA-ranitidine formulations). […]
On the technique in general: In western blotting, separated proteins are transferred to a membrane and probed.

A further experiment has as its system ERK. The experiment can be described thus: Western blot of ppERK and total ERK in striatum. The note with it: 45 minutes after last injection. As for the experimental part: as §1, §2
A further experiment concerns SAPK/JNK. Nature of the experiment: Western blot of phospho SAPK/JNK and total SAPK/JNK in striatum. How it is done: as §1, §2

With `N[C@@H](Cc1ccc(O)c(O)c1)C(=O)O` [L-DOPA, L-3,4-dihydroxyphenylalanine], the “GRK3 in the lesioned hemisphere as % expression of the intact side” value with GRK3 is on record as “significantly reduced in the lesioned hemisphere”. Moreover, the “ERK phosphorylation (ppERK) in the lesioned hemisphere” value in the experiment on ERK is “increased”. The “phospho JNK level in both the intact and the lesioned hemispheres” value in the experiment with SAPK/JNK (no differences between hemispheres) is “elevated”.
As for `CN/C(=C\[N+](=O)[O-])NCCSCc1ccc(CN(C)C)o1` [Ranitidine, N-(2-[(5-[(dimethylamino)methyl]furan-2-yl)methylthio]ethyl)-N′-methyl-2-nitroethene-1,1-diamine], the “GRK3 in the lesioned hemisphere as % expression of the intact side” value in the experiment on GRK3 is reported as “significantly attenuated”. In addition, the “ERK phosphorylation (ppERK) in the lesioned hemisphere” value in the experiment with ERK was “increased”. Besides, in the experiment on SAPK/JNK (ranitidine alone group), the “phosphorylation of p54 versus the ranitidine/DOPA formulation groups” value was “reduced in both the intact and lesioned hemispheres”.
